# Data taken from publication PMC2745596 (Bioorganic & Medicinal Chemistry Letters, 2008).
# Legend:
# SARS-CoV 3CLpro = SARS-CoV 3CLpro (Severe acute respiratory syndrome coronavirus, UniProt P0C6X7); format: biochemical
# SARS-CoV Urbani strain = format: cell-based
compound,measurement,setting,value
O=C(Oc1cncc(Cl)c1)c1cccc2[nH]ccc12 [Inhibitor 10],potency enhancement over 5 (enzyme IC50),SARS-CoV 3CLpro,10 fold
O=C(On1nnc2ccccc21)c1ccc2[nH]ccc2c1 [Inhibitor 3],antiviral activity (in words),SARS-CoV Urbani strain,did not exhibit any antiviral activity
